# Source: EP2923697B1, “Extract and novel isolated compound from Aspergillus terreus for treatment of mouth microbial infections” (King Saud University, priority 2014, dated 2015)
# “And” between values parts separate entries of the source, which are not always exact repeats. Equal values may be shown once.
# Legend:
# Candida tropicalis [1] = assay: Antimicrobial activity, well diffusion method; format: cell-based; settings: 5mg/ml of sample around well (6 mm), mean ± Standard deviation
# Excerpt: (§1) Mouth microbial representatives including unicellular fungi; Candida albicans (RCMB 05382), Candida glabrata (RCMBA 05386), Candida parapsilosis (RCMBA 06002), Candida tropicalis (RCMB 05384), Gram-positive bacteria; Lactobacillus acidophilus (RCMBA 4267), Streptococcus gordonii (RCMBA 2004), Streptococcus mutans (RCMBA 4131), and Gram-negative bacteria; Pseudomonas aeruginosa (RCMBA 1002) were obtained from the Regional Center for Mycology and Biotechnology (RCMB), Al-Azhar University, Cairo, Egypt, as test organisms. Antimicrobial activity was determined by the well diffusion method. Petri plates contained 20 ml of Nutrient (for bacteria) or Malt extract (for fungi). Agar medium were seeded with 1-3 day cultures of microbial inoculums (1-2 X 10^7 CFU/ml). […] The assessment of antimicrobial activity was based on measurement of the diameter of the inhibition zone formed around the well.
# Candida glabrata [2] = assay: Antimicrobial activity, well diffusion method; format: cell-based; settings: 5mg/ml of sample around well (6 mm), mean ± Standard deviation
# Excerpt: as §1
# Streptococcus gordonii [3] = assay: Antimicrobial activity, well diffusion method; format: cell-based; settings: 5mg/ml of sample around well (6 mm), mean ± Standard deviation
# Excerpt: as §1
# Pseudomonas aeruginosa [4] = assay: Antimicrobial activity, well diffusion method; format: cell-based; settings: 5mg/ml of sample around well (6 mm), mean ± Standard deviation
# Excerpt: as §1
# Streptococcus mutans [5] = assay: Antimicrobial activity, well diffusion method; format: cell-based; settings: 5mg/ml of sample around well (6 mm), mean ± Standard deviation
# Excerpt: as §1
# [6] = system: Lactobacillus acidophilus; assay: Antimicrobial activity, well diffusion method; format: cell-based; settings: 5mg/ml of sample around well (6 mm), mean ± Standard deviation
# Excerpt: as §1
# Candida parapsilosis [7] = assay: Antimicrobial activity, well diffusion method; format: cell-based; settings: 5mg/ml of sample around well (6 mm), mean ± Standard deviation
# Excerpt: as §1
# Candida albicans [8] = assay: Antimicrobial activity, well diffusion method; format: cell-based; settings: 5mg/ml of sample around well (6 mm), mean ± Standard deviation
# Excerpt: as §1
# [9] = Sub-chronic toxicity, liver and kidney function; format: in vivo, Male Wister rats; settings: rats; oral daily for 15 days; extract 500 mg/kg, isolated compound 50 mg/kg; serum 6 hr after the last dose
# Method: Male Wister rats (150-180 g) were divided into 3 equal groups each of 10 rats. Rats of the 1st group received the vehicle in a dose of 5 mL/kg and left as normal control. Rats of the 2nd and 3rd groups were administered the ethanolic extract of the investigated fungi (500 mg/kg) and the isolated compound (50 mg/kg). All medications were administered orally daily for 15 consecutive days. Animals were maintained under identical conditions with food and water ad libitum for the entire period with close observation. At the end of the experimental period, blood samples were collected from the orbital plexus of rats, 6 hr after the last dose. Samples were left to clot at room temperature for 20 min. The obtained sera were collected and used to determine the activity of AST and ALT. Levels of urea and creatinine were also estimated.
# Candida tropicalis [10] = assay: MIC determination, micro-dilution method; format: cell-based; settings: for MIC: read-out: Minimum Inhibitory Concentration
# Excerpt: (§2) Mouth microbial representatives including unicellular fungi; Candida albicans (RCMB 05382), Candida glabrata (RCMBA 05386), Candida parapsilosis (RCMBA 06002), Candida tropicalis (RCMB 05384), Gram-positive bacteria; Lactobacillus acidophilus (RCMBA 4267), Streptococcus gordonii (RCMBA 2004), Streptococcus mutans (RCMBA 4131), and Gram-negative bacteria; Pseudomonas aeruginosa (RCMBA 1002) were obtained from the Regional Center for Mycology and Biotechnology (RCMB), Al-Azhar University, Cairo, Egypt, as test organisms.
# (§3) The minimum inhibitory concentration (MIC) was determined by micro-dilution method using serially diluted (2 folds) extract and isolated compound. MIC of the extract was determined by dilution of extract and isolated compound of concentrations of 0.0-1000 µg/ml. Equal volume of each extract and nutrient broth were mixed in a test tube. Specifically 0.1 ml of standardized inoculum (1-2 X 10^7 CFU/ml) was added in each tube. The tubes were incubated at 37°C for 24-48 h. Two control tubes containing the growth medium, saline and the inoculum were maintained for each test batch. The lowest concentration (highest dilution) of the extract that produced no visible microbial growth (no turbidity) when compared with the control tubes were regarded as MIC.
# Candida glabrata [11] = assay: MIC determination, micro-dilution method; format: cell-based
# Excerpt: as §2, §3
# Streptococcus gordonii [12] = assay: MIC determination, micro-dilution method; format: cell-based; settings: read-out: Minimum Inhibitory Concentration
# Excerpt: as §2, §3
# Pseudomonas aeruginosa [13] = assay: MIC determination, micro-dilution method; format: cell-based; settings: read-out: Minimum Inhibitory Concentration
# Excerpt: as §2, §3
# Streptococcus mutans [14] = assay: MIC determination, micro-dilution method; format: cell-based; settings: read-out: Minimum Inhibitory Concentration
# Excerpt: as §2, §3
# [15] = system: Lactobacillus acidophilus; assay: MIC determination, micro-dilution method; format: cell-based; settings: for MIC: read-out: Minimum Inhibitory Concentration
# Excerpt: as §2, §3
# Candida parapsilosis [16] = assay: MIC determination, micro-dilution method; format: cell-based; settings: Lodderomyces parapsilosis, read-out: Minimum Inhibitory Concentration
# Excerpt: as §2, §3
# Candida albicans [17] = assay: MIC determination, micro-dilution method; format: cell-based; settings: read-out: Minimum Inhibitory Concentration
# Excerpt: as §2, §3
# [18] = system: Lactobacillus acidophilus; assay: In-vitro activity in combination with Coe-Comfort tissue conditioner, CFU count; format: cell-based; settings: for concentration giving total growth inhibition: in combination with Coe-comfort tissue conditioner; for No. colony-forming units (CFU): mixed with Coe-Comfort
# Candida albicans [19] = assay: as above; format: cell-based; settings: for concentration giving total growth inhibition: C. albicans, in combination with Coe-comfort tissue conditioner; for No. colony-forming units (CPU): Candida albicans, mixed with Coe-Comfort
# Method: The Coe-Comfort tissue conditioner was mixed according to the proportions indicated by the manufacturers. In detail, Coe-comfort™ tissue conditioner is formed by dispensing 5 ml of Coe-comfort liquid into a disposable mixing cup. The red measure level is filled with about 6 g of Coe-comfort powder and is then slowly added to the liquid. The obtained mixture is blended for 30 seconds and setted aside for approximately one minute until it flows sluggishly from a spatula. Using less liquid gives a thicker, faster setting mix and vice versa. […] The extract and isolated compound/conditioner mixture was homogenized in a sterile glass beaker for 30 seconds. Immediately afterwards, the conditioning powder was added and mixed for 40 seconds and then poured onto a Petri plate. Once the mixture solidified, the surface was covered with 4 ml of Sabouraud agar, and after 30 minutes, inoculated with 20 µl of an appropriate dilution of Candida. The plates were incubated at 37°C for 24 hours and then the CFUs were counted. The experiment was performed in triplicate. For the conditioner Coe-Comfort, the control was unmodified conditioner.
# S. mutans = assay: In-vitro activity in combination with Coe-Comfort tissue conditioner; format: cell-based, Streptococcus mutans
# Streptococcus gordonii [20] = assay: as above; format: cell-based
structure (smiles),measurement,setting,value
"C/C=C(/C)C1CCC2C(C1)CC(C)C1C2C=C(C)C2C3CC(C=C(C)C)CC3C(O)CC21 (centres unmarked) [Isolated compound, 9-((Z)-but-2-en-2-yl)-2,3,3a,4,5,5a;5b,6,7,7a,8,9,10,11,11a,11b,13a,13b-octadecahydro-6,13-dimethyl-2-(2-methylprop-1-enyl)-1H-cyclopenta[a]chrysen-4-ol]",Diameter of inhibition zone,Candida tropicalis [1],22.4 ± 0.58 mm
same,Diameter of inhibition zone,Candida glabrata [2],00.0 mm
same,Diameter of inhibition zone,Streptococcus gordonii [3],20.3 ± 0.72 mm
same,Diameter of inhibition zone,Pseudomonas aeruginosa [4],18.2± 0.63 mm
same,Diameter of inhibition zone,Streptococcus mutans [5],22.1± 0.72 mm
same,Diameter of inhibition zone,[6],23.9 ± 0.37 mm
same,Diameter of inhibition zone,Candida parapsilosis [7],21.3 ± 0.58 mm
same,Diameter of inhibition zone,Candida albicans [8],19.3 ± 0.63 mm
same,effect on the activity of alanine aminotransferase (ALT),[9],did not show any significant effect
same,effect on the activity of aspirate aminotransferase (AST),[9],did not show any significant effect
same,effect on the levels of blood urea,[9],did not show any significant effect
same,effect on the levels of serum creatinine,[9],did not show any significant effect
same,Minimum Inhibitory Concentration,Candida tropicalis [10],000.49 µg/mL
same,MIC,Candida tropicalis [10],0.49 mg/L
same,Minimum Inhibitory Concentration,Candida glabrata [11]; Candida glabrata,000.00 µg/mL
same,MIC,Streptococcus gordonii [12],3.9 mg/L
same,MIC,Pseudomonas aeruginosa [13],15.6 mg/L
same,MIC,Streptococcus mutans [14],0.98 mg/L
same,Minimum Inhibitory Concentration,[15],000.24 µg/mL
same,MIC,[15],0.24 mg/L
same,MIC,Candida parapsilosis [16],1.95 mg/L
same,MIC,Candida albicans [17],7.81 mg/L
same,concentration giving total growth inhibition,[18],7.81 µg/mL
same,No. colony-forming units (CFU),[18]; concentration 000.24 µg/ml,8.2 x 10^5
same,No. colony-forming units (CFU),[18]; concentration 000.49 µg/ml,9.7 x 10^4
same,No. colony-forming units (CFU),[18]; concentration 000.98 µg/ml,4.8 x 10^4
same,No. colony-forming units (CFU),[18]; concentration 001.95 µg/ml,3.4 x 10^3
same,No. colony-forming units (CFU),[18]; concentration 003.90 µg/ml,4.1 x10^2
same,No. colony-forming units (CFU),[18]; concentration 007.81 µg/ml,00.00
same,No. colony-forming units (CFU),[18]; concentration 015.63 µg/ml,00.00
same,No. colony-forming units (CFU),[18]; concentration 031.25 µg/ml,00.00
same,No. colony-forming units (CFU),[18]; concentration 062.50 µg/ml,00.00
same,concentration giving total growth inhibition,Candida albicans [19],7.81 µg/mL
same,No. colony-forming units (CPU),Candida albicans [19]; concentration 000.24 µg/ml,9.1 x 10^4
same,No. colony-forming units (CPU),Candida albicans [19]; concentration 000.49 µg/ml,5.2 x 10^4
same,No. colony-forming units (CPU),Candida albicans [19]; concentration 000.98 µg/ml,6.3 x 10^3
same,No. colony-forming units (CPU),Candida albicans [19]; concentration 001.95 µg/ml,1.0 x 10^3
same,No. colony-forming units (CPU),Candida albicans [19]; concentration 003.90 µg/ml,2.3 x 10^2
same,No. colony-forming units (CPU),Candida albicans [19]; concentration 007.81 µg/ml,00.00
same,No. colony-forming units (CPU),Candida albicans [19]; concentration 015.63 µg/ml,00.00
same,No. colony-forming units (CPU),Candida albicans [19]; concentration 031.25 µg/ml,00.00
same,No. colony-forming units (CPU),Candida albicans [19]; concentration 062.50 µg/ml,00.00
same,concentration giving total growth inhibition,S. mutans,125 µg/mL
same,concentration giving total growth inhibition,Streptococcus gordonii [20],62.50 µg/mL and 62.5 µg/mL
"[H]/N=C(\N/C(=N/[H])NCCCCCCNC(=N)NC(=N)Nc1ccc(Cl)cc1)Nc1ccc(Cl)cc1 [Chlorhexidine, reference compound]",Diameter of inhibition zone,Streptococcus gordonii [3],22.1± 0.51 mm
same,Diameter of inhibition zone,Pseudomonas aeruginosa [4],20.1 ± 0.19 mm
same,Diameter of inhibition zone,Streptococcus mutans [5],23.5 ± 0.34 mm
same,Diameter of inhibition zone,[6],26.2± 0.42 mm
same,MIC,Streptococcus gordonii [12],0.98 mg/L
same,MIC,Pseudomonas aeruginosa [13],3.9 mg/L
same,MIC,Streptococcus mutans [14],0.49 mg/L
same,MIC,[15],0.06 mg/L
same,concentration giving total growth inhibition,[18],15.63 µg/mL
same,No. colony-forming units (CFU),[18]; concentration 000.24 µg/ml,6.4 x 10^5
same,No. colony-forming units (CFU),[18]; concentration 000.49 µg/ml,2.3 x 10^5
same,No. colony-forming units (CFU),[18]; concentration 000.98 µg/ml,3.1 x 10^4
same,No. colony-forming units (CFU),[18]; concentration 001.95 µg/ml,5.4 x 10^3
same,No. colony-forming units (CFU),[18]; concentration 003.90 µg/ml,1.9 x 10^3
same,No. colony-forming units (CFU),[18]; concentration 007.81 µg/ml,7.9 x 10^2
same,No. colony-forming units (CFU),[18]; concentration 015.63 µg/ml,00.00
same,No. colony-forming units (CFU),[18]; concentration 031.25 µg/ml,00.00
same,No. colony-forming units (CFU),[18]; concentration 062.50 µg/ml,00.00
same,concentration giving total growth inhibition,S. mutans,15.63 µg/mL
same,concentration giving total growth inhibition,Streptococcus gordonii [20],3.9 µg/mL
"C[C@@H]1[C@H](O)[C@@H](C)/C=C/C=C/C=C/C=C/C=C/C=C/C=C/[C@H](O[C@@H]2O[C@H](C)[C@@H](O)[C@H](N)[C@@H]2O)C[C@@H]2O[C@](O)(C[C@@H](O)C[C@@H](O)[C@H](O)CC[C@@H](O)C[C@@H](O)CC(=O)O[C@H]1C)C[C@H](O)[C@H]2C(=O)O [Amphotericin B, reference compound]",Diameter of inhibition zone,Candida tropicalis [1],24.6± 0.27 mm
same,Diameter of inhibition zone,Candida glabrata [2],20.4± 0.87 mm
same,Diameter of inhibition zone,Candida parapsilosis [7],23.2 ± 0.53 mm
same,Diameter of inhibition zone,Candida albicans [8],21.3± 0.14 mm
same,MIC,Candida tropicalis [10],0.12 mg/L
same,MIC,"Candida glabrata [11]; Nakaseomyces glabratus, read-out: Minimum Inhibitory Concentration",1.95 mg/L
same,MIC,Candida parapsilosis [16],0.49 mg/L
same,concentration giving total growth inhibition,Candida albicans [19],7.81 µg/mL
same,No. colony-forming units (CPU),Candida albicans [19]; concentration 000.49 µg/ml,9.1 x 10^4
same,No. colony-forming units (CPU),Candida albicans [19]; concentration 000.98 µg/ml,8.9 x 10^4
same,No. colony-forming units (CPU),Candida albicans [19]; concentration 001.95 µg/ml,9.3 x 10^3
same,No. colony-forming units (CPU),Candida albicans [19]; concentration 003.90 µg/ml,8.1 x 10^2
same,No. colony-forming units (CPU),Candida albicans [19]; concentration 007.81 µg/ml,00.00
same,No. colony-forming units (CPU),Candida albicans [19]; concentration 015.63 µg/ml,00.00
same,No. colony-forming units (CPU),Candida albicans [19]; concentration 031.25 µg/ml,00.00
same,No. colony-forming units (CPU),Candida albicans [19]; concentration 062.50 µg/ml,00.00
